# From publication PMC12369479 (Journal of Experimental Botany, 2025)
# Values joined by “and” are separate entries in the source; they are usually repeats but may differ in a detail not shown here. Equal values may be shown once. Read-outs that look alike come from different tables or passages of the source.
# What was measured:
# [1] = biological target: T1, ZmADK2 (Zea mays, UniProt B4FFH8, T4S); test: Binding affinity by microscale thermophoresis (MST); settings: for Kd: MST
# Experimental: (§1) The microscale thermophoresis (MST) method was used to determine the binding affinity of various ribosides for ZmADK2 and PpADK1. Proteins were fluorescently labeled with RED-tris-NTA dye (www.nanotemper-technologies.com) using a 1:1 dye/protein molar ratio. The labeled protein was adjusted to 100–300 nM in 50 mM HEPES buffer pH 7.5, 1 mM MgCl2, and 0.2% Tween. Measurements were performed in premium capillaries on a Monolith NT.115 instrument at 30 °C with 5 s/30 s/5 s laser off/on/off times, respectively, with continuous sample fluorescence recording. Thermal stability was measured by nano-differential scanning fluorimetry on a Prometheus NT.48 instrument (www.nanotemper-technologies.com) in various buffers covering a pH (7.0–9.5) and temperature range (25–95 °C), with a heating rate of 1 °C min^–1, and using NT melting control software. Protein unfolding was measured by detecting the temperature-induced change in tryptophan fluorescence intensity at emission wavelengths of 330±5 nm and 350±5 nm. The melting temperature (Tm) was deduced from the maximum of the first derivative of the fluorescence ratios F350/F330.
# [2] = test system: rabbit ADK; design: method as in Miller et al., 1979a; settings: ref Miller et al., 1979a; cited from earlier work
# [3] = biological target: T2, PpADK1 (Physcomitrium patens, UniProt O49923); test: Binding affinity by microscale thermophoresis (MST); design: species or system Physcomitrella patens
# T2 construct: made in house; host or cells: E. coli T7 Express Iq
# Experimental: as §1
# [4] = biological target: ZmADK1 (Zea mays, UniProt K7UH13); test: ADK activity, coupled reaction with PK and LDH; settings: 100 µM substrate, 10 mM ATP, pH 7.5, 30 °C
# Experimental: (§2) Substrate analogs were purchased from Sigma-Aldrich (www.sigmaaldrich.com). The ADK activity was measured spectrophotometrically on an Agilent 8453 UV-Vis spectrophotometer (www.agilent.com) at 30 °C using a coupled reaction with pyruvate kinase (PK) and lactate dehydrogenase (LDH) (www.sigmaaldrich.com) ([Blondin et al., 1994]). In this assay, PK converts ADP produced by ADK and phosphoenolpyruvate (PEP) to pyruvate. Subsequently, LDH then converts pyruvate to lactate using the coenzyme NADH, with the conversion monitored at 340 nm. The reaction was conducted in 50 mM Tris–HCl buffer at pH 7.5, containing 50 mM KCl, 6 mM MgCl2, 300 µM PEP, 200 µM NADH, 10 mM ATP, 2 U of PK, and 2.5 U of LDH, using various nucleoside substrates. Kinetic constants were determined using GraphPad Prism 8.0 software (www.graphpad.com). Each measurement was performed six times using repetitive purified enzymes. The activities of all five ADKs were also measured by HPLC ([Moffatt et al., 1991]). The reaction mixture comprised 50 mM Tris–HCl pH 7.5, 5 mM MgCl2, 0.5 mM DTT, 30 mM NaF, 5 mM ATP, 40 µM substrate, and 2–150 ng of purified ADK, depending on the isoform. The reaction was incubated at 30 °C for up to 1 h. […] Similarly, the conversion of cytokinin ribosides to monophosphates was followed on a LiChrosphere 60 RP-Select B (5 µm) LiChroCART column 125-4 column equilibrated with 10 mM triethylamine at pH 5.4 plus 10% methanol, and stepwise eluted with 100% methanol.
# [5] = biological target: PpADK2 (Physcomitrium patens, UniProt A9RF27); test: ADK activity, coupled reaction with PK and LDH; settings: 100 µM substrate, 10 mM ATP, pH 7.5, 30 °C
# Experimental: as §2
# [6] = biological target: T2, PpADK1; test: ADK activity, coupled reaction with PK and LDH; assay type: biochemical, Physcomitrella patens; settings: 100 µM substrate, 10 mM ATP, pH 7.5, 30 °C
# Experimental: as §2
# [7] = biological target: T1, ZmADK2; test: ADK activity, coupled reaction with PK and LDH; assay type: biochemical; settings: ZmADK2, 10 mM ATP, pH 7.5, 30 °C
# Experimental: as §2
# [8] = biological target: ZmADK3 (Zea mays, UniProt A0A1D6E5Z5); test: ADK activity, coupled reaction with PK and LDH; assay type: biochemical; settings: ZmADK3; 100 µM substrate; 10 mM ATP; pH 7.5; 30 °C
# Experimental: Substrate analogs were purchased from Sigma-Aldrich (www.sigmaaldrich.com). […] In this assay, PK converts ADP produced by ADK and phosphoenolpyruvate (PEP) to pyruvate. Subsequently, LDH then converts pyruvate to lactate using the coenzyme NADH, with the conversion monitored at 340 nm. The reaction was conducted in 50 mM Tris–HCl buffer at pH 7.5, containing 50 mM KCl, 6 mM MgCl2, 300 µM PEP, 200 µM NADH, 10 mM ATP, 2 U of PK, and 2.5 U of LDH, using various nucleoside substrates. Kinetic constants were determined using GraphPad Prism 8.0 software (www.graphpad.com). Each measurement was performed six times using repetitive purified enzymes. […] The reaction mixture comprised 50 mM Tris–HCl pH 7.5, 5 mM MgCl2, 0.5 mM DTT, 30 mM NaF, 5 mM ATP, 40 µM substrate, and 2–150 ng of purified ADK, depending on the isoform. The reaction was incubated at 30 °C for up to 1 h.
# [9] = KD, 50 mM HEPES pH 7.5, 1 mM MgCl2, first or only binding event
# T2 sequence (O49923 whole entry): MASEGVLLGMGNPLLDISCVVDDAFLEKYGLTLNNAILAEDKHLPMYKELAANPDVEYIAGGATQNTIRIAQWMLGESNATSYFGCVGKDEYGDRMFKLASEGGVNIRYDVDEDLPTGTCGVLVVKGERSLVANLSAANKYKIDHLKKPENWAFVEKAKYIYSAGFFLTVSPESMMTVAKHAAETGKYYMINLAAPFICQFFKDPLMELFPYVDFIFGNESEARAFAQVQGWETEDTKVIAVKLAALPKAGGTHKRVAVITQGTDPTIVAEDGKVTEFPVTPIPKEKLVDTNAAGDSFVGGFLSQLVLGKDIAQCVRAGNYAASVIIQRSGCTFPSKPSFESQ
# T1 sequence (B4FFH8 1-342 T4S): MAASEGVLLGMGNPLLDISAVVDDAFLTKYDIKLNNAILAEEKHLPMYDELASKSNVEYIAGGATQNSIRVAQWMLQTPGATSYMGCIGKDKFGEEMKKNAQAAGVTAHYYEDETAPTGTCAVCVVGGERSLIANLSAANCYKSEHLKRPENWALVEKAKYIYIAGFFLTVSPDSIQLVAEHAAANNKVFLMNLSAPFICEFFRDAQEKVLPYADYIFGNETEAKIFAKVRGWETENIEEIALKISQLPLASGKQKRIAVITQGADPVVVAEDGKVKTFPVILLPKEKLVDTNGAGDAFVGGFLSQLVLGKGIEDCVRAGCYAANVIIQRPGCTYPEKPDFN
# Chain of PpADK2 (A9RF27 entry or part of it): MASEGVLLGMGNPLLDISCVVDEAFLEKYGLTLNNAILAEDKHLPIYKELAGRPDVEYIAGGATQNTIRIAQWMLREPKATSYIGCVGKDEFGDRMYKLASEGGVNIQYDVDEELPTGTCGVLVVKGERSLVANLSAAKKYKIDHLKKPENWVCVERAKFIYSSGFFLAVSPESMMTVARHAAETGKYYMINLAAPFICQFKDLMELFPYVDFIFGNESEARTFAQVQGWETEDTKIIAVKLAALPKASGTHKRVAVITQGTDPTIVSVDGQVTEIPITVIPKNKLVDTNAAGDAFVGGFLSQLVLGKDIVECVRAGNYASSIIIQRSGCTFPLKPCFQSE
# Chain of ZmADK3 (A0A1D6E5Z5 entry or part of it): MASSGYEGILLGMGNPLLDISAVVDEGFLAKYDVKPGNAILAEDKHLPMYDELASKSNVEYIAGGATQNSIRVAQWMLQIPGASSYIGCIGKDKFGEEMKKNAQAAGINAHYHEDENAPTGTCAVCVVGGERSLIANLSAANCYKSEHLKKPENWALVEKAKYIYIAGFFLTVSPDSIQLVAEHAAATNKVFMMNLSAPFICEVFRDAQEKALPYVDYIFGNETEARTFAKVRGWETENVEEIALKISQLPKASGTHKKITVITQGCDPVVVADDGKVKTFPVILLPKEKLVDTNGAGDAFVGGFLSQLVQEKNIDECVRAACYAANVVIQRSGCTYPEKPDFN
# Chain of ZmADK1 (K7UH13 entry or part of it): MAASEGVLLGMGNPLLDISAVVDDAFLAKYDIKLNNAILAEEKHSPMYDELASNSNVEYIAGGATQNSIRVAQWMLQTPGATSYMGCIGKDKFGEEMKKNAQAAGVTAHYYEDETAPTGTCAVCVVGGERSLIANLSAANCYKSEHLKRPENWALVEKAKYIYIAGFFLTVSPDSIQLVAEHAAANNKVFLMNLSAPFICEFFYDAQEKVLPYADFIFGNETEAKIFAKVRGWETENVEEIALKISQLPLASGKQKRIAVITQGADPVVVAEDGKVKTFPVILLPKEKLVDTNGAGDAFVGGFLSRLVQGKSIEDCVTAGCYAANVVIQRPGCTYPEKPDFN
smiles,measurement,setting,value
O=c1[nH]c(=O)c2ncn([C@@H]3O[C@H](CO)[C@@H](O)[C@H]3O)c2[nH]1 [Xanthosine],Kd,[1]; [9],166 ± 77 µM
C/C(=C\CNc1ncnc2c1ncn2[C@@H]1O[C@H](CO)[C@@H](O)[C@H]1O)CO [ZR],Km,[2],20 µM
same,activity compared with Ado,[2],6.3%
Nc1ncnc2c1ncn2C1OC(COP(=O)(O)O)C(O)C1O (centres unmarked) [AMP],Kd,"[3]; 50 mM HEPES pH 7.5, 1 mM MgCl2, first or only binding event, read-out: KD",121 µM
same,Kd,"[3]; second binding event (ATP site), read-out: second (higher) KD value",8300 µM
same,Kd,[1]; [9],247 ± 71 µM
same,Kd,"[1]; second KD value, KD(2), second binding event (ATP site)",~8000 µM and 8300 µM
same,Kd,"[1]; second KD value, second binding event (ATP site)",8300 ± 2070 µM
"Nc1ncnc2c1ncn2[C@@H]1O[C@H](CO)C[C@H]1O [3′-DeoxyAdo, cordycepin]",Km,[2],254 µM
same,Kd,[1]; [9],175 ± 9 µM
"Nc1ncnc2c1ncn2[C@@H]1O[C@H](CO)[C@@H](O)[C@@H]1O [AraA, Adenine arabinoside]",Kd,[1]; [9],> 500 µM
OC[C@H]1O[C@@H](n2cnc3c(O)ncnc32)[C@H](O)[C@@H]1O [Inosine],Kd,[1]; [9],440 ± 180 µM
Nc1ccn([C@@H]2O[C@H](CO)[C@@H](O)[C@H]2O)c(=O)n1 [Cytidine],Kd,[1]; [9],286 ± 10 µM
"C/C(=C\CNc1ncnc2c1ncn2[C@@H]1O[C@H](CO)[C@@H](O)[C@H]1O)CO (relative stereo) [tZR, trans-zeatin riboside]",Specific activity,[4],2.7±0.3 nmol s^–1 mg^–1
same,Specific activity,[5],0.83±0.08 nmol s^–1 mg^–1
same,Specific activity,[6],0.74±0.06 nmol s^–1 mg^–1
same,Specific activity,[7]; 100 µM substrate,3.8±0.4 nmol s^–1 mg^–1
same,Specific activity,[8],2.7±0.4 nmol s^–1 mg^–1
"Nc1ncnc2c1ccn2[C@@H]1O[C@H](CO)[C@@H](O)[C@H]1O [7-DeazaAdo, tubercidin]",Km,[7],3.4 ± 0.4 µM
same,kcat,[7],0.17±0.01 s^–1
same,Kd,[1]; [9],2.2 ± 0.7 µM
same,weaker affinity compared with Ado,[1]; ratio of KD values,~ 5.5 fold
Nc1ncnc2c1ncn2[C@@H]1O[C@H](COP(=O)(O)OP(=O)(O)O)[C@@H](O)[C@H]1O [ADP],Kd,"[1]; 50 mM HEPES pH 7.5, 1 mM MgCl2, read-out: KD",10300 ± 1200 µM
